Laboratory results reported in article PMC12612973, “Inhibition of Human Amylin Aggregation: In Silico and In Vitro Studies” (ACS Omega, 2025).
Where “and” joins values, the source holds several entries; their conditions need not be identical. Equal values may be shown once. Read-outs that look alike come from different tables or passages of the source.

Key:
[1] = molecular target: T1, human amylin (hIAPP) (Homo sapiens, UniProt P10997); assay: Thioflavin T (ThT) fluorescence assay of amylin aggregation; format: biochemical; conditions: read-out: IC50 of amylin aggregation inhibition
T1 construct: purchased Bachem USA
T1 sequence (P10997 34-70 limits assumed): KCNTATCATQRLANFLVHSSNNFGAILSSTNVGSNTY

[2] = molecular target: T1, human amylin (hIAPP); assay: Fluorescence quenching of amylin: Stern-Volmer, binding and thermodynamic analysis; conditions: for quenching of amylin's intrinsic fluorescence: compound 0 to 20 μM, excitation 275 nm; for Kd: read-out: K b (binding constant) (converted); for ΔH / ΔS: Van't Hoff plot, 25/30/37 °C
Procedure: The fluorescence emission scans (wavelengths 290 to 500 nm) of 10-fold diluted amylin samples were acquired with a PerkinElmer model LS 55. The excitation wavelength was set at 275 nm to observe the fluorescence of the tyrosine residue exclusively. The integrated spectrum from 290 to 450 nm was used to obtain the relative fluorescence values of Tyr. Fluorescence measurements were performed in 1 cm light-path quartz cuvettes, with both excitation and emission bandwidths set to 5 nm. Sample fluorescence was determined by subtracting the fluorescence of the buffer. Each experiment was performed in duplicate. ,
Quenching titrations with acrylamide were carried out by adding varying amounts of a quencher stock solution (5 M) to the protein solution (∼15 μM diluted 10-fold). , The excitation wavelength was set at 275 nm, and the fluorescence emission spectra were scanned from 275 to 500 nm using a PerkinElmer model LS 55. The emission and excitation slits were set to 5 and 10 nm, respectively, and a 1 cm cuvette was used for all experiments. According to the Stern–Volmer equation, the integration area between 290 and 450 nm was used for data analysis. , Before analyzing the quenching data, the fluorescence emission spectra were corrected for volume changes, scattering effects, and the inner filter effect due to acrylamide absorption. , Each experiment was performed in duplicate. The quenching mechanism analysis by the Stern–Volmer equation was calculated according to eq . F 0 is the fluorescence intensity without the quencher, and F is the intensity with a quencher. K sv is the Stern–Volmer quenching constant, while Q is the quencher concentration. K q is the biomolecular quenching constant, and τ0 is the average lifetime of the fluorophore. 1 F0/F=1+Ksv[Q]=1+Kqτ0[Q]
The parameter n obtained from the fit is treated as an apparent slope/exponent (heterogeneous populations and partial fluorophore accessibility) and is not interpreted as the literal number of binding sites. 2 log(F0−F)/F=logKb+nlog[Q]
The Van’t Hoff equation was used to calculate the various thermodynamic interaction parameters. Equation was implemented to calculate the free energy change. 3 lnKb=−ΔH^°/RT+ΔS^°/R 4 ΔG^°=ΔH^°−TΔS^°=−RTlnKb

[3] = system: Pancreatic INS-1E cells; assay: MTT cytotoxicity assay of amylin aggregates aged with or without inhibitors; format: cell-based; conditions: for effect on INS-1E cell viability in presence of amylin: INS-1E cells cultured with the MTDLs
Procedure: In this study, we utilized Pancreatic INS-1E cells (Department of Cell Physiology and Metabolism, University Medical Center, Switzerland) due to their close physiological similarity to native β-cells, making them highly relevant to our experimental objectives. Pancreatic INS-1E cells were grown in RPMI 1640 medium, supplemented with 2 mM glutamine, 5% fetal calf serum, 10 mM HEPES (pH 7.4), 1 mM sodium pyruvate, 50 μM 2-mercaptoethanol, 100 units/mL penicillin, and 0.1 mg/mL streptomycin. The culturing environment was maintained at 37 °C, 5% CO2, pH 7.4.
The toxicity of human amylin aggregates in the presence or absence of different compounds in the presence of 2% DMSO was assessed by the 3-(4,5-dimethylthiazol-2-yl)-2,5-diphenyltetrazolium bromide (MTT) reduction assay. The cells were cultured and then seeded into 96-well plates and grown for 24 h prior to exposure to different intermediates of amylin or a mixture of amylin with the MTDLs. The final amylin concentration within the culture medium was 5 μM. Cell viability was expressed as the percentage of MTT reduction, using cells treated with the same buffer volume as a reference (100% MTT reduction). The values (averages ± S.D.) were obtained from three independent experiments.

[4] = molecular target: T1, human amylin (hIAPP); assay: Kinetic analysis of amylin aggregation (ThT, two-step autocatalytic aggregation model); format: biochemical; conditions: mean ± S.D.; for t 0 (time point when the aggregation starts): 10% of highest ThT fluorescence; for t 1/2 (aggregation halftime): 50% of highest ThT fluorescence; for t 1 (aggregation endpoint): 90% of highest ThT fluorescence; for k / k e (elongation constant) / k n (nucleation constant) / ρ (ratio of kn to k): ThT data, autocatalytic aggregation model
Procedure: Kinetic analysis was performed according to the model of autocatalytic aggregation. According to Sabaté et al., aggregation is a two-step process, comprising nucleation (described by the k n constant) and fibrillation phases (represented by the k e constant). Two constants (k n and k e) are calculated using the eq : 5 f=ρ{e^[(1+ρ)kt]−1}/{1+ρe^[(1+ρ)kt]} where k = k e a (where a represents the initial concentration of the aggregating peptide), f stands for a fraction of the fibrillar form in the system, and ρ denotes the dimensionless ratio of k n to k. The parameters k and ρ were calculated first, then k n and k e.
Data were normalized as a fraction of the highest fluorescence from the three trials and fitted into the model of autocatalytic aggregation. The same procedure was repeated for the remaining trials. The second calculation aimed to find the time parameters of the aggregation process: t 0 (time point when the aggregation starts), t 1/2 (aggregation halftime), and t 1 (aggregation endpoint). t 0, t 1/2, and t 1 were calculated as 10%, 50%, and 90% of the highest fluorescence measurements from the three trials, respectively. All calculations were performed using GraphPad Prism 9.5.1, Statistica 13.3.721.1, and Microsoft Excel 2304.

Structure (SMILES)	IC50 [1] [µM]	K q (quenching constant) ([2]; 25 °C)	K sv (Stern–Volmer quenching constant) ([2]; 25 °C)	n (apparent slope/exponent, binding sites) ([2]; 25 °C)	ΔG ([2]; 25 °C)	quenching of amylin's intrinsic fluorescence ([2]; 25 °C)	Kd ([2]; 25 °C) [µM]	K q (quenching constant) ([2]; 30 °C)	K sv (Stern–Volmer quenching constant) ([2]; 30 °C)	n (apparent slope/exponent, binding sites) ([2]; 30 °C)	ΔG ([2]; 30 °C)	Kd ([2]; 30 °C) [µM]	K q (quenching constant) ([2]; 37 °C)	K sv (Stern–Volmer quenching constant) ([2]; 37 °C)	n (apparent slope/exponent, binding sites) ([2]; 37 °C)	ΔG ([2]; 37 °C)	Kd ([2]; 37 °C) [µM]	ΔH [2] [kcal/mol]	ΔS [2] [J/mol K]	effect on INS-1E cell viability in presence of amylin [3]	other results
CC(C)(C)c1cccc(CNCC(O)CNCCC(c2ccccc2)c2ccccc2)c1 (stereo not shown) [Compound 18]	3.04	5.80 ± 0.17 10^12 M^–1 s^–1	3.43 ± 0.21 10^4 M^–1	0.60 ± 0.12	–5.99 ± 0.10 kJ/mol	substantial quenching	2500	4.57 ± 0.11 10^12 M^–1 s^–1	2.70 ± 0.39 10^4 M^–1	0.75 ± 0.10	–6.99 ± 0.20 kJ/mol	769	3.90 ± 0.12 10^12 M^–1 s^–1	2.30 ± 0.18 10^4 M^–1	0.92 ± 0.10	–8.38 ± 0.30 kJ/mol	286	12.74 ± 1.17	199.00 ±14.13	retained cell viability	cell viability difference versus the sample with amylin fibrils ([3]; INS-1E cells 24 h, amylin aggregates aged 36 h with 2.92 μM compound 18 or 3.31 μM compound 21): approximately 30 % points; t 0 (time point when the aggregation starts) [4]: 9.31 ± 0.72 h; t 1/2 (aggregation halftime) [4]: 19.02 ± 0.57 h; t 1 (aggregation endpoint) [4]: 29.29 ± 0.36 h; k [4]: 0.2087 ± 0.0084 h^–1; k e (elongation constant) [4]: 13913 M^–1h^–1 and 13913 ± 560 M^–1h^–1; k n (nucleation constant) [4]: 0.004 h^–1 and 0.0039 ± 0.0009 h^–1; ρ (ratio of kn to k) [4]: 0.0186 ± 0.0051
CC(C)(C)c1cccc(CNCC(O)CCNCCC(c2ccccc2)c2ccccc2)c1 (stereo not shown) [Compound 22]	2.71	5.67 ± 0.16 10^12 M^–1 s^–1	3.35 ± 0.18 10^4 M^–1	0.80 ± 0.15	–5.05 ± 0.27 kJ/mol	substantial quenching	1000	3.89 ± 0.11 10^12 M^–1 s^–1	2.30 ± 0.27 10^4 M^–1	1.06 ± 0.10	–7.19 ± 0.17 kJ/mol	20.9	2.88 ± 0.12 10^12 M^–1 s^–1	1.70 ± 0.13 10^4 M^–1	1.15 ± 0.15	–10.23 ± 0.41 kJ/mol	10.7	29.637 ± 1.08	433.00 ± 9.13	retained cell viability	cell viability difference versus oleuropein aglycone ([3]; INS-1E cells 24 h, amylin aggregates aged 36 h with compound): around 8 % points; cell viability (MTT reduction) ([3]; INS-1E cells 24 h with amylin aggregates aged 36 h in presence of compound (2.61 μM of compound 22)): ~93%; cell viability higher than that of the control ([3]; cytotoxicity assay, discussion statement): ~40%; t 0 (time point when the aggregation starts) [4]: 4.36 ± 0.16 h; t 1/2 (aggregation halftime) [4]: 11.87 ± 1.02 h; t 1 (aggregation endpoint) [4]: 20.69 ± 2.27 h; k [4]: 0.2326 ± 0.0366 h^–1; k e (elongation constant) [4]: 15505 M^–1h^–1 and 15505 ± 2437 M^–1h^–1; k n (nucleation constant) [4]: 0.014 h^–1 and 0.0142 ± 0.0006 h^–1; ρ (ratio of kn to k) [4]: 0.0624 ± 0.0126
